Consider five compounds from patent US5952322A, “Method of reducing tissue damage associated with non-cardiac ischemia using glycogen phosphorylase inhibitors” (Pfizer Inc., priority 1997, dated 1999).

Structures are written as SMILES. Read-outs that look alike come from different tables or passages of the source.

Assay [1] deals with T1, human liver glycogen phosphorylase a (HLGPa) (Homo sapiens, UniProt P06737).
T1 construct: made in house; host or cells: E. coli XL-1 Blue (pKK233-2) or Sf9 insect cells (pBlueBac III baculovirus)
T1 sequence (P06737 2-847 limits assumed): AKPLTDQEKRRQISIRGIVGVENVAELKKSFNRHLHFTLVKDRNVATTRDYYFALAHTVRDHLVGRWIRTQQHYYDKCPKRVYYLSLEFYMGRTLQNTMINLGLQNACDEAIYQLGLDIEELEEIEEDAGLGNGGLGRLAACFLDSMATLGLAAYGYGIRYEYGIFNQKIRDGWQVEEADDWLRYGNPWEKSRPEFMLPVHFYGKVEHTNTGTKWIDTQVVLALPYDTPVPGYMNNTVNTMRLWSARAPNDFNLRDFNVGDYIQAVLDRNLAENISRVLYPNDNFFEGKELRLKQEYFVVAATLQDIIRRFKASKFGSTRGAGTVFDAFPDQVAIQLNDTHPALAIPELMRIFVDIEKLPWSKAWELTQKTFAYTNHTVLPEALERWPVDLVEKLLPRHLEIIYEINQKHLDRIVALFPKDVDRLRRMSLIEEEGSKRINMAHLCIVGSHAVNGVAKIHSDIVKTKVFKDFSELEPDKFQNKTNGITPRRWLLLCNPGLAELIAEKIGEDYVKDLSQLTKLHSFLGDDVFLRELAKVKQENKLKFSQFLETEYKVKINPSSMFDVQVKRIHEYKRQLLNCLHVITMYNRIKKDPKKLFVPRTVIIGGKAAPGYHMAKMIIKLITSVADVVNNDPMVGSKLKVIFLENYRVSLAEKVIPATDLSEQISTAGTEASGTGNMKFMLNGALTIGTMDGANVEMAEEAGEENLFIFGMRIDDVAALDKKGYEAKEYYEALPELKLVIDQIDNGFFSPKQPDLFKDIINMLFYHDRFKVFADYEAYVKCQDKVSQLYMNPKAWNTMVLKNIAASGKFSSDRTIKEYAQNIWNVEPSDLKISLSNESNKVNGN
The assay is described as follows: GPa activity assay, reverse direction (inorganic phosphate release from glucose-1-phosphate), human liver isoform. Type of assay: biochemical. The procedure:
(§1) All reactions are run in triplicate in 96-well microtiter plates and the change in absorbance due to formation of the reaction product is measured at the wavelength specified below in a MCC/340 MKII Elisa Reader (Lab Systems, Finland), connected to a Titertech Microplate Stacker (ICN Biomedical Co, Huntsville, Ala.).
(§2) Buffer B is at pH 7.2 and contains 50 mM HEPES, 100 mM KCl, 2.5 mM EGTA, 2.5 mM MgCl2 and 0.5 mM dithiothreitol. […] After a 20 minute incubation at room temperature, the absorbance is measured at 620 nm.

The target of assay [2] is T2, human muscle glycogen phosphorylase a (HMGPa) (Homo sapiens, UniProt P11217).
T2 construct: made in house; host or cells: E. coli strain XL-1 Blue (plasmid pKK233-2)
T2 sequence (P11217 2-842 limits assumed): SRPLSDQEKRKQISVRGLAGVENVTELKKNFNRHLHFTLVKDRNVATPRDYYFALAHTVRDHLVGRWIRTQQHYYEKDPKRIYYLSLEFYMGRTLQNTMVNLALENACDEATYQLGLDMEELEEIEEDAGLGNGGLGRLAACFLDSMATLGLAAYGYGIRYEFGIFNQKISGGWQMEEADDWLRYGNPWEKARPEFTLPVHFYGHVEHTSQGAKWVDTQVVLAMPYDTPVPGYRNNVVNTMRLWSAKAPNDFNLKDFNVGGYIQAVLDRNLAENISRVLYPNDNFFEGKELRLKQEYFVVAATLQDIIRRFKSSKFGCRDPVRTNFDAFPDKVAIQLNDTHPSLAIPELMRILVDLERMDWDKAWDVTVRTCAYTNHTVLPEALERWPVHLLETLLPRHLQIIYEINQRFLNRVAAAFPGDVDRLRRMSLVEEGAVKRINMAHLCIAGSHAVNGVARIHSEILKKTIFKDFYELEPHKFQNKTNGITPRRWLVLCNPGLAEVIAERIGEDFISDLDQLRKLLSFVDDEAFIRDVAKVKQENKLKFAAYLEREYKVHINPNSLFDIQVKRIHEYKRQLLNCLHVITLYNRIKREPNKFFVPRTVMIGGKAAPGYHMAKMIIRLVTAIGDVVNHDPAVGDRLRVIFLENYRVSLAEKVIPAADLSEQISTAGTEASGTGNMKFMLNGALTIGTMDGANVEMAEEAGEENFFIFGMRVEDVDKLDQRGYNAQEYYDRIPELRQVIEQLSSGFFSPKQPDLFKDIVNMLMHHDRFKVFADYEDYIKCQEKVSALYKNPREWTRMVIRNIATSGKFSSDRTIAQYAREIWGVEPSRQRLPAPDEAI
The assay is described as follows: GPa activity assay, reverse direction (inorganic phosphate release from glucose-1-phosphate), human muscle isoform. Type of assay: biochemical. The procedure:
as §1, §2

In assay [3] the test system is rabbit isolated heart. The experiment in a line: Cardioprotection (reduction of infarcted myocardium) in isolated, retrogradely perfused (Langendorff) rabbit heart after regional ischemia and reperfusion. The arrangement: species or system Male New Zealand White rabbits. The note with it: for Infarct Area/Area-at-Risk (%IA/AAR): standard error in own column, control 63.9. The text has this: Cardioprotection, as indicated by a reduction in infarcted myocardium, can be induced pharmacologically using adenosine receptor agonists in isolated, retrogradely perfused rabbit hearts as an in vitro model of myocardial ischemic preconditioning (Liu et al., Cardiovasc. Res., 28:1057-1061, 1994). […] The exact methodology is described below.
The protocol used for these experiments closely follows that described by Liu et al., Cardiovasc. Res., 28:1057-1061, 1994. Male New Zealand White rabbits (3-4 kg) are anesthetized with sodium pentobarbital (30 mg/kg, i.v.). After deep anesthesia is achieved (determined by the absence of an ocular blink reflex) the animal is intubated and ventilated with 100% O2 using a positive pressure ventilator. A left thoracotomy is performed, the heart exposed, and a snare (2-0 silk) is placed loosely around a branch of the left anterior descending coronary artery, approximately 2/3 of the distance towards the apex of the heart. The heart is removed from the chest and rapidly (<30 sec) mounted on a Langendorff apparatus. The heart is retrogradely perfused via the aorta in a non-recirculating manner with a modified Krebs solution (NaCl 118.5 mM, KCl 4.7 mM, Mg SO4 1.2 mM, KH2 PO4 1.2 mM, NaHCO3 24.8 mM, CaCl2 2.5 mM, and glucose 10 mM), at a constant pressure of 80 mmHg and a temperature of 37° C. […] Heart rate and left ventricular pressures are determined via a latex balloon which is inserted in the left ventricle and connected by stainless steel tubing to a pressure transducer. […] Perfusate flow rates are routinely determined throughout the experimental period. […]
At the end of the 120 min reperfusion period, the coronary artery snare is tightened, and a 0.5% suspension of fluorescent zinc cadmium sulfate particles ([…]) is perfused through the heart; this stains all of the myocardium, except that area at risk for infarct development (area-at-risk). […] The infarcted area (no stain) and the area-at-risk (no fluorescent particles) are calculated for each slice of left ventricle using a precalibrated image analyzer. […]

In assay [4] the test system is rabbit isolated heart. As to conditions: Liu et al., Cardiovasc. Res., 28:1057-1061, 1994; cited from earlier work.
Where [5] appears, read: reverse direction assay, HLGPa, read-out: HLGPa IC50.

What is called IC50 is the concentration needed to halve the response being measured. As to `CN(C)C(=O)[C@H](O)[C@H](Cc1ccccc1)NC(=O)c1cc2cc(Cl)ccc2[nH]1` [5-Chloro-1H-indole-2-carboxylic acid [(1S)-((R)-hydroxy-dimethylcarbamoyl-methyl)-2-phenyl-ethyl]-amide], the figures for the IC50 in assay [1] and in assay [2] were 108 nM and 155 nM, respectively.
Take `O=C(N[C@@H](Cc1ccccc1)C(=O)N1CC(O)C1)c1cc2cc(Cl)ccc2[nH]1` [5-chloro-1H-indole-2-carboxylic acid [(1S)-benzyl-2-(3-hydroxy-azetidin-1-yl)-2-oxo-ethyl]-amide]: the “cardioprotection relative to the control group” value in the assay with rabbit isolated heart [3] (5 μM) was “significant cardioprotection”. In addition, the “Infarct Area/Area-at-Risk (%IA/AAR)” value with rabbit isolated heart [3] (5 μM, perfused from 30 min before 30 min regional ischemia through 120 min reperfusion, n=6) came to 31.4%.
`Nc1ccc(CCNc2ncnc3c2ncn3[C@@H]2O[C@H](CO)[C@@H](O)[C@H]2O)cc1` [APNEA, N^6-[2-(4-aminophenyl)ethyl]adenosine, reference compound]: in the assay on rabbit isolated heart [3] (500 nM, perfused 5 min, then 10 min drug-free, before 30 min ischemia and 120 min reperfusion, n=9), the “Infarct Area/Area-at-Risk (%IA/AAR)” value was 19.0%. In addition, the “pharmacologically induced cardioprotection in the rabbit isolated heart” value with rabbit isolated heart [4] is recorded as “shown to pharmacologically induce cardioprotection”.
In the case of `CON(C)C(=O)[C@H](O)[C@H](Cc1ccccc1)NC(=O)c1cc2cc(Cl)ccc2[nH]1` [5-Chloro-1H-indole-2-carboxylic acid {(1S)-[(R)-hydroxy-(methoxy-methylcarbamoyl)-methyl]-2-phenyl-ethyl}-amide], the IC50 in assay [1] (setting [5]) turned out to be 51 nM; in assay [2] it was 110 nM.
For `CN(CCO)C(=O)[C@H](O)[C@H](Cc1ccccc1)NC(=O)c1cc2cc(Cl)ccc2[nH]1` [5-Chloro-1H-indole-2-carboxylic acid ((1S)-{(R)-hydroxy-[(2-hydroxy-ethyl)methyl-carbamoyl]-methyl}-2-phenyl-ethyl)-amide] the same measures were 152 nM and 20 nM.
